Entries after “also recorded” stand apart in the source; their conditions may differ.
What was measured:
[1] = test system: Rituximab-resistant cells (Raji 4RH and RL 4RH); assay: direct cytotoxicity in rituximab-resistant cells, annexin/PI; format: cell-based; conditions: TRU-016 5 μg/mL, rituximab 10 μg/mL, five-fold excess goat anti-human IgG, 24 hours
Procedure: Direct cytoxicity was measured by annexin/PI staining and cell viability (percent) was calculated relative to control cells (cells treated with herceptin).

[2] = test system: Ramos cells; assay: Annexin V/PI apoptosis analysis, Ramos; format: cell-based, human; conditions: 24 hours, TRU-016 10 μg/mL (unfractionated)
Procedure: Experiments examining the effect of B cell targeted SMIPS on B cell line apoptosis were performed. Each SMIP was tested individually and then in combination. Samples were analyzed at both 24 and 48 hours after initiation of incubation reactions. […] In addition, 20 μg/mL goat anti-human IgG was added to reactions in order to cross link reagents on the cell surface. Cells were then stained with Annexin V-FITC and propidium iodide using the BD Pharmigen Apoptosis Detection Kit I (#556547), and processed according to kit instructions. Briefly, cells were washed twice with cold PBS and resuspended in “binding buffer” at 1×10^6 cells/mL. One hundred microliters of the cells in binding buffer were then stained with 5 μl of Annexin V-FITC and 5 μl of propidium iodide. The cells were gently vortexed and incubated in the dark at room temperature for 15 minutes. Four hundred microliters of binding buffer was then added to each sample. They were then read and analyzed on a FACsCalibur (Becton Dickinson) instrument using Cell Quest software (Becton Dickinson).
Similar data were obtained whether Ramos or BJAB cells were used as the binding targets in these assays.

[3] = test system: Daudi tumors; assay: Daudi tumor xenograft in nude mice; format: in vivo, mouse
Procedure: Ramos and Daudi tumor cells were separately grown and (5×10^6) cells were injected subcutaneously in the right flank of mice to initiate the formation of mouse tumor xenografts. After tumor development, mice were sorted into groups based on tumor size/volume (day 0). […] Tumor volume was blindly measured three times weekly with calipers until completion of the experiment (sacrifice or regression).

[4] = target: T1, C1q (Homo sapiens, UniProt P02745+P02746+P02747); assay: FITC C1q binding to reagent-coated Ramos B cells in normal human serum; conditions: normal human serum 1.25-10%, FIG. 3A
T1 construct: normal human serum (NHS, #A113, Quidel Corp., San Diego, Calif.); tissue Quidel Corp. A113; host or cells: normal human serum (purchased), added to reagent-coated Ramos B cells
Procedure: C1q binding studies were performed as previously described (Cragg et al., Blood 2004, 103:2738-2743). Briefly, Ramos B-cells in Iscoves media (#12440-053, Gibco/Invitrogen, Grand island, NY) with no serum were plated in 96-well V bottom plates at 5×10^5/well in 100 μl. Cells were incubated with reagents for 15 minutes at 37° C., and normal human serum (NHS, #A113, Quidel Corp., San Diego, Calif.) diluted in Iscoves was then added at a volume of 50 μl to each well for a final concentration of 10, 5, 2.5, or 1.25% human serum. Fifty μl of media was added to the control well. For cobra venom factor (CVF) experiments, CVF was added to human serum complement samples at 20 Units CVF/mL of serum for 90 minutes at 37° C. prior to addition of serum to complement assays, and the dilution of serum by CVF accounted for when making sample dilutions.
The cells plus complement source were incubated for an additional 5 minutes at 37° C., and washed 2 times with cold PBS (#14040-133, Gibco/Invitrogen, Grand Island, N.Y.) via centrifugation and resuspended in 100 μl of PBS. Fifty μl from each well was transferred to a second plate for second step control staining. […] Samples were washed, resuspended in cold PBS, and read immediately on a FACsCalibur flow cytometer and analyzed with Cell Quest software (Becton Dickinson, San Jose, Calif.).

[5] = target: T2, CD37 (Homo sapiens, UniProt P11049); assay: competitive binding / FACs cross blocking of FITC anti-CD37 reagents on BJAB cells; set-up: BJAB-cells, a B lymphoblastoid B-cell line, (courtesy of Ed Clark, University of Washington); endogenous in cells; host or cells: BJAB B lymphoblastoid cell line; conditions: unlabeled blocking reagent, FIG. 2
T2 sequence (P11049 1-281): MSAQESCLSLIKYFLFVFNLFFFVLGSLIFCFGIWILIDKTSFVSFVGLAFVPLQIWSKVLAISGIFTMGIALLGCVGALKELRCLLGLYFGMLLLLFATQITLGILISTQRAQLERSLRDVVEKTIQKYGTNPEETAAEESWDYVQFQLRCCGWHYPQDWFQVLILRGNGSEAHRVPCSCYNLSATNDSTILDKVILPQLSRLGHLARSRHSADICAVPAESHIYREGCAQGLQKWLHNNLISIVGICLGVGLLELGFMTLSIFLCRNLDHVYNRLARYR
Procedure: FITC labeled antibody conjugates were titrated from 10 μg/mL to 10 pg/mL in an initial binding study to determine the optimal amounts to use in the blocking studies. The level chosen was just below saturating amounts, and was kept constant in the subsequent assays, while levels of blocking antibody were increased over a 10-fold range. Data were plotted as percent of maximal binding versus concentration of blocking antibody, so that higher levels indicate less efficient blocking, while lower levels indicate more efficient blocking activity.
BJAB-cells, a B lymphoblastoid B-cell line, (courtesy of Ed Clark, University of Washington) were then stained with a panel of various clones of anti-CD37 MAbs, including MB371, BL14, NMN46, IPO24, HH1, WR17, and the TRU-016 SMIP.
For competitive binding assays, 2.5×10^5 BJAB cells were incubated in 96-well V-bottom plates in staining media (PBS with 2% mouse sera) with the FITC-conjugated anti-CD37 MAbs at 1.25 μg/mL in the presence of unconjugated anti-CD37 MAb at the indicated concentrations (2.5, 1.25, 0.6, or 0.3 μg/ml) or staining media for 45 minutes on ice in the dark. Blocking antibodies and FITC labeled antibody conjugates were added to reactions prior to addition of cells. […] The cells were analyzed by flow cytometry using a FACsCalibur instrument and CellQuest software (BD Biosciences, San Jose, Calif.). […]

[6] = target: T3, CD37 cell surface receptor (Homo sapiens, UniProt P11049); assay: TRU-016 binding to human PBMC, two-color flow cytometry
T3 construct: Human PBMCs were isolated over LSM density gradients and incubated with unconjugated TRU-016; endogenous in cells; host or cells: human PBMC (CD19-positive B lymphocyte gate)
T3 sequence (P11049 1-281): T2 sequence (P11049 1-281)
Procedure: Experiments were also performed to determine that the binding specificity of the parent antibody to the CD37 cell surface receptor is preserved in TRU-016. Human PBMCs were isolated over LSM density gradients and incubated with unconjugated TRU-016 and PE-conjugated anti-human CD19. Cells were washed and incubated with 1:100 FITC GAH IgG (Fc specific) for 45 minutes on ice. Cells were washed and analyzed by two-color flow cytometry on a FACsCalibur instrument using Cell Quest software. Cells were gated for B lymphocytes or non-B lymphocytes by CD19 staining.
With increasing concentrations of TRU-016, the FITC signal on the B lymphocyte (CD19 positive gate) increased rapidly from 0.01-1.0 μg/ml, until it reached saturation at approximately 1 μg/mL or a mean fluorescence intensity (MFI) of 1000. […] Thus, the staining pattern of the G28-1 murine monoclonal antibody is preserved with TRU-016 (FIG. 1C).

[7] = established Daudi tumors, 100 μg

T1 sequence (P02745 23-245): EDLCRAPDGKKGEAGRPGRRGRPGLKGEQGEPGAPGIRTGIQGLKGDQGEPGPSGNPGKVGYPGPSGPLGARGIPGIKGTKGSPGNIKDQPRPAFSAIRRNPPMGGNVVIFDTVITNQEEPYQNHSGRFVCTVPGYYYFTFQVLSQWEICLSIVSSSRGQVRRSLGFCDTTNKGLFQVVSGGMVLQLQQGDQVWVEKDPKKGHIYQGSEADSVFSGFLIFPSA
T1 sequence (P02746 28-253): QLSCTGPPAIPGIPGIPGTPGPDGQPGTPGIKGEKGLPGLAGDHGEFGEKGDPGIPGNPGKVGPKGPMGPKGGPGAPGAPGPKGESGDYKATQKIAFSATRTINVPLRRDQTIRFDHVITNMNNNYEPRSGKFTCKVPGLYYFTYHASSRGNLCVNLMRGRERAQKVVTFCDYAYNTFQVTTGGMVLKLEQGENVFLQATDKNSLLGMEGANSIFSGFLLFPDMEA
T1 sequence (P02747 29-245): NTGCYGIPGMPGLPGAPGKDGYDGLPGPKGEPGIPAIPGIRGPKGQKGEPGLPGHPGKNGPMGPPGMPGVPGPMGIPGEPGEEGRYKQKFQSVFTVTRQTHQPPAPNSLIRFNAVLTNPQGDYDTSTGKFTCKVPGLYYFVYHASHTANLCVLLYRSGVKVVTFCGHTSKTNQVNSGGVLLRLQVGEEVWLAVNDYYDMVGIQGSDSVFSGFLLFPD

G28-1 scFv VH11S(SSC—P)H WCH2 WCH3 [TRU-016]
cell toxicity (cell viability relative to herceptin-treated cells) [1]: greater cell toxicity than rituximab | % of annexin V positive-PI negative cells ([2]; 8.5% before): 19.7% | % of annexin V-PI double positive cells ([2]; 11.3% before): 32.8% | survival time ([3]; Daudi tumor xenograft, FIGS. 25 and 26): more effective than rituximab in maintaining survival; also recorded: significantly enhanced survival time compared to the control group; also recorded: statistically significant increase in median survival time | Median Survival Time [3, 7]: 24 days | Percentage of Tumor Free Mice at Day 90 [3, 7]: 25% | FITC C1q binding [4]: does not bind well | blocking activity (inhibition of binding of FITC anti-CD37 conjugates) [5]: highest level of blocking activity | mean fluorescence intensity (MFI) at saturation ([6]; B lymphocyte (CD19 positive gate)): 1000 | staining of / binding to the non-B lymphocyte population ([6]; CD19 negative gate): much lower level of binding; also recorded: detectable, but very low | binding to human peripheral blood B lymphocytes ([6]; flow cytometry, FIG. 1C): high level, specific binding | concentration at which FITC signal on B lymphocytes (CD19 positive gate) reached saturation ([6]; human PBMC, FITC GAH IgG detection): approximately 1 μg/mL
